The target in assay [1] is T1, Type I 5α-Reductase from Human Scalp (Homo sapiens, UniProt P18405).
T1 construct: Scalp punch biopsies from graft recipient sites were obtained from human hair transplant procedures; from tissue; host or cells: human scalp punch biopsies (hair transplant graft recipient sites), homogenate, 100,000×g pellet
T1 sequence (P18405 1-259): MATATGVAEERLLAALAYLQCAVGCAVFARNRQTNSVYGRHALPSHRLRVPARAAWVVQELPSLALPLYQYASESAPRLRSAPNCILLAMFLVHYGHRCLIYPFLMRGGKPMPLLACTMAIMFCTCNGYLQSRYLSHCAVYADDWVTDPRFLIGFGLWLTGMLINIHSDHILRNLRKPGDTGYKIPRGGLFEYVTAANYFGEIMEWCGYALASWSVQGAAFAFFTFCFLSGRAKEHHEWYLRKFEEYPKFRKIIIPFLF
Kind of assay: Human Type I 5α-reductase assay (conversion of [3H]-testosterone to 5α-reduced metabolites). The assay is classed as biochemical.

The target of assay [2] is T2, Type II 5α-Reductase from Human Prostate (Homo sapiens, UniProt P31213).
T2 construct: The same procedure as above was used for preparations using tissue from prostate surgery; from tissue; host or cells: human prostate tissue from surgery, homogenate, 100,000×g pellet
T2 sequence (P31213 1-254): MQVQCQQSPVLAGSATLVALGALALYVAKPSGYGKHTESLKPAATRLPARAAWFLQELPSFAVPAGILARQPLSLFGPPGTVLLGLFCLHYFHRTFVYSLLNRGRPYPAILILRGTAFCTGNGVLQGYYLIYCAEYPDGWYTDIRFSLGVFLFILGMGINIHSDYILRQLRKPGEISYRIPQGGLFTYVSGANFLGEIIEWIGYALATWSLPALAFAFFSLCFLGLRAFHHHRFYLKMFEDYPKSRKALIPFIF
Kind of assay: Human Type II 5α-reductase assay (conversion of [3H]-testosterone to 5α-reduced metabolites). The assay is classed as biochemical. The following applies: for percent inhibition of Type II AR: 0.3 μM.

The mark [3] stands for this setting: pH 7.5, 0.3 μM, 50 nM [3H]-testosterone, pH 7.5, 25°, 180 min, compared to control reaction mixtures, read-out: percent inhibition of Type I AR.
[4] abbreviates: pH 5.5, 0.3 μM, sodium acetate pH 5.5, 25°, 30 min, compared to control reaction mixtures, read-out: percent inhibition of Type II AR.
[5] abbreviates: sodium acetate pH 5.5, 25°, 30 min, compared to control reaction mixtures.

SMILES strings stand for the structures. Like-named read-outs stand apart in the source and are kept apart here.

A word on the inhibition: it is the percentage by which the read-out fell short of the control.

On to `CN1C(=O)CC[C@]2(C)c3ccc(Sc4ccc5cc([N+](=O)[O-])ccc5n4)cc3CC[C@@H]12` [Example 168, (+)-(4aR)-(10bR)-4-methyl-8-(6-nitro-2-quinolinylthio)-10b-methyl-1,2,3,4,4a,5,6,10b-octahydrobenzo[f]quinolin-3-one], for which the inhibition at 0.3 µM in assay [1] (setting [3]) came to 85%; in assay [2] (setting [4]) it was 41%.
As for `CN1C(=O)CC[C@]2(C)c3ccc(Sc4nc5c(Br)cccc5s4)cc3CC[C@@H]12` [Example 183, (+)-(4aR)-(10bR)-4-methyl-8-(4-bromo-2-benzothiazolylthio)-10b-methyl-1,2,3,4,4a,5,6,10b-octahydrobenzo[f]quinolin-3-one], the inhibition at 0.3 µM came to 89% in assay [1] (setting [3]) and 88% in assay [2] (setting [4]). Besides, the “percent inhibition of Type II AR” value in assay [2] (setting [5]) was determined as 87%.
For `CN1C(=O)CC[C@]2(C)c3ccc(Sc4ccc(Cl)cc4)cc3CC[C@@H]12` [Example 95, (+)-(4aR)-(10bR)-4,10b-dimethyl-8-(4-chlorophenylthio)-1,2,3,4,-4a,5,6,10b-octahydrobenzo[f]quinolin-3-one], the inhibition at 0.3 µM in assay [1] (setting [3]) is 95%; in assay [2] (setting [4]), 35%.
The like results for `CN1C(=O)CC[C@]2(C)c3ccc(-c4ccc(SCc5ccc([N+](=O)[O-])cc5)cc4)cc3CC[C@@H]12` [Example 233, (+)-(4aR)-(10bR)-4-methyl-8-(4-[4-nitrobenzyl]thiophenyl)-10b-methyl-1,2,3,4,4a,5,6,10b-octahydrobenzo[f]quinolin-3-one] were, in that order, 95% and 38%.
The like results for `C[C@]12CCC(=O)N[C@@H]1CCc1cc(SCc3ccccc3)ccc12` [Example 23, (4aR)-(10bR)-8-benzylthio-10b-methyl-1,2,3,4,4a,5,6,10b-octahydrobenzo[f]quinolin-3-one] were, in that order, 59% and 31%.
Take `CN1C(=O)CC[C@]2(C)c3ccc(Sc4n[nH]c5ccccc45)cc3CC[C@@H]12` [Example 156, (+)-(4aR)-(10bR)-4-methyl-8-(3-indazolylthio)-10b-methyl-1,2,3,4,4a,5,6,10b-octahydrobenzo[f]quinolin-3-one]: the inhibition at 0.3 µM in assay [1] (setting [3]) is 71%; in assay [2] (setting [4]), 70%.
The like results for `CN1C(=O)CC[C@]2(C)c3ccc(-c4cccc(CNC(c5ccccc5)c5ccccc5)c4)cc3CC[C@@H]12` [Example 292, (+)-(4aR)-(10bR)-4-methyl-8-(3-diphenylmethylaminomethylphenyl)-10b-methyl-1,2,3,4,4a,5,6,10b-octahydrobenzo[f]quinolin-3-one] were, in that order, 86% and 11%.
The like results for `CN1C(=O)CC[C@]2(C)c3ccc(SCc4ccccc4)cc3CC[C@@H]12` [Example 136, (4aR)-(10bR)-8-benzylthio-4,10b-dimethyl-1,2,3,4,4a,5,6, 10b-octahydrobenzo[f]quinolin-3-one] were, in that order, 100% and 32%.
Take `Cc1cccc2sc(Sc3ccc4c(c3)CC[C@H]3N(C)C(=O)CC[C@]43C)nc12` [Example 159, (+)-(4aR)-(10bR)-4-methyl-8-(4-methyl-2-benzothiazolylthio)-10b-methyl-I, 2,3,4,4a,5,6,10b-octahydrobenzo[f]quinolin-3-one]: the “percent inhibition of Type I AR” value in assay [1] (0.3 μM, 50 nM [3H]-testosterone, pH 7.5, 25°, 180 min, compared to control reaction mixtures) stood at 87%. Further, the “percent inhibition of Type II AR” value in assay [2] (setting [5]) worked out at 83%. The inhibition at 0.3 µM in assay [2] (setting [4]) was found to be 87%.
Turning to `CN1C(=O)CC[C@]2(C)c3ccc(-c4cc5ccccc5c5ccccc45)cc3CC[C@@H]12` [Example 67, (+)-(4aR)-(10bR)-4-methyl-8-(9-phenanthrenyl)-10b-methyl-1,2,3,4,4a,5,6,10b-octahydrobenzo[f]quinolin-3-one], the inhibition at 0.3 µM in assay [1] (pH 7.5, read-out: percent inhibition of Type I AR) stood at 22%; in assay [2] (pH 5.5, read-out: percent inhibition of Type II AR), 54%.
Regarding `CN1C(=O)CC[C@]2(C)c3ccc(-c4ccc(S(N)(=O)=O)cc4)cc3CC[C@@H]12` [Example 220, (+)-(4aR)-(10bR)-4-methyl-8-(4-sulfonamidophenyl)-10b-methyl-1,2,3,4,4a,5,6,10b-octahydrobenzo[f]quinolin-3-one], the inhibition at 0.3 µM amounted to 67% in assay [1] (setting [3]) and 26% in assay [2] (setting [4]).
The like results for `CN1C(=O)CC[C@]2(C)c3ccc(Sc4cc(-c5ccccc5)cc(-c5ccccc5)n4)cc3CC[C@@H]12` [Example 181, (+)-(4aR)-(10bR)-4-methyl-8-(2-[4,6-diphenyl]pyridylthio)-10b-methyl-1,2,3,4,4a,5,6,10b-octahydrobenzo[f]quinolin-3-one] were, in that order, 63% and 31%.
Consider `Cc1ccccc1Sc1ccc2c(c1)CC[C@H]1N(C)C(=O)CC[C@]21C` [Example 101, (+)-(4aR)-(10bR)-4,10b-dimethyl-8-(2-methylphenylthio)-1,2,3,4,-4a,5,6,10b-octahydrobenzo[f]quinolin-3-one], for which the inhibition at 0.3 µM came to 75% in assay [1] (setting [3]) and 43% in assay [2] (setting [4]).
The like results for `C[C@]12CCC(=O)N[C@@H]1CCc1cc(Sc3ccccc3F)ccc12` [Example 17, (+)-(4aR)-(10bR)-8-(2-fluorophenylthio)-10b-methyl-1,2,3,4,4a,5,6,10b-octahydrobenzo[f]quinolin-3-one] were, in that order, 29% and 19%.
The like results for `COc1cccc2sc(Sc3ccc4c(c3)CC[C@H]3N(C)C(=O)CC[C@]43C)nc12` [Example 182, (+)-(4aR)-(10bR)-4-methyl-8-(4-methoxy-2-benzothiazolylthio)-10b-methyl-1,2,3,4,4a,5,6,10b-octahydrobenzo[f]quinolin-3-one] were, in that order, 63% and 100%.
On to `CN1C(=O)CC[C@]2(C)c3ccc(Sc4ccc(-c5ccccc5)nn4)cc3CC[C@@H]12` [Example 171, (+)-(4aR)-(10bR)-4-methyl-8-(6-phenyl-3-pyridazinylthio)-10b-methyl-1,2,3,4,4a,5,6,10b-octahydrobenzo[f]quinolin-3-one], for which the inhibition at 0.3 µM in assay [1] (setting [3]) was 43%; in assay [2] (setting [4]) it was 63%.
In the case of `CN1C(=O)CC[C@]2(C)c3ccc(-c4ccc(F)c5ccccc45)cc3CC[C@@H]12` [Example 64, (+)-(4aR)-(10bR)-4-methyl-8-(1-[4-fluoro]naphthyl)-10b-methyl-1,2,3,4,4a,5,6,10b-octahydrobenzo[f]quinolin-3-one], the inhibition at 0.3 µM in assay [1] (setting [3]) is 81%; in assay [2] (setting [4]), 22%.
The like results for `CN1C(=O)CC[C@]2(C)c3ccc(NC(=O)c4ccccc4)cc3CC[C@@H]12` [Example 267, (+)-(4aR)-(10bR)-4,10b-dimethyl-8-benzoylamino-1,2,3,4,4a,-5,6,10b-octahydrobenzo[f]quinolin-3-one] were, in that order, 34% and 51%.
The like results for `CN1C(=O)CC[C@]2(C)c3ccc(-c4nc5c(Cl)cccc5s4)cc3CC[C@@H]12` [Example 262, (+)-(4aR)-(10bR)-4-methyl-8-(2-[4-chloro]benzothiazolyl)-10b-methyl-1,2,3,4,4a,5,6,10b-octahydrobenzo[f]quinolin-3-one] were, in that order, 91% and 41%.
For the molecule `CN1C(=O)CC[C@]2(C)c3ccc(-c4cc(Cl)sc4Cl)cc3CC[C@@H]12` [Example 132, (+)-(4aR)-(10bR)-4-methyl-8-(3-[2,5-dichlororo]thienyl)-10b-methyl-1,2,3,4,4a,5,6,10b-octahydrobenzo[f]quinolin-3-one], the inhibition at 0.3 µM in assay [1] (setting [3]) was 87%; in assay [2] (setting [4]) it was 24%.

The record behind these values is patent publication US5622962A, “5α-reductase inhibitors” (priority 1995, dated 1997).
